This note sets out measurements from BindingDB's records for doi:10.1021/jm300601d (Boehringer Ingelheim Pharmaceuticals, 2012).

SMILES strings stand for the structures.

This assay is described as follows: Inhibition of NHE1 in human platelet rich plasma assessed as reduction of propionate medium induced platelet swelling measured every 6 secs for 5 mins.
For `N=C(N)NC(=O)c1ccc(C2CCN(C(=O)c3ccc(F)cc3)CC2)c(C(F)(F)F)c1`, the EC50 (as a rule, the concentration giving half of the maximal effect) was found to be 184 nM. To `N=C(N)NC(=O)c1ccc(C2CCN(C(=O)C3CC3)CC2)c(C(F)(F)F)c1` belongs 50 nM; to `CC(=O)N1CCC(c2cc(C)c(C(=O)NC(=N)N)cc2S(C)(=O)=O)CC1`, 56 nM; to `N=C(N)NC(=O)c1ccc(C2CCN(C(=O)C3CCCC3)CC2)c(C(F)(F)F)c1`, 416 nM. For the molecule `N=C(N)NC(=O)c1ccc(N2CCCC(NC(=O)c3ccc[nH]3)C2)c(C(F)(F)F)c1` (centres undefined), the EC50 was 3480 nM. To `N=C(N)NC(=O)c1ccc(N2CCC(NC(=O)c3ccc[nH]3)C2)c(C(F)(F)F)c1` (centres undefined) belongs 1590 nM; to `N=C(N)NC(=O)c1ccc(N2CCC(NC(=O)c3ccc[nH]3)CC2)c(C(F)(F)F)c1`, 950 nM; to `COc1ccc(C(=O)N2CCC(c3ccc(C(=O)NC(=N)N)cc3C(F)(F)F)CC2)cc1`, 498 nM. The same measure for `CC(=O)N1CCC(c2cc(C)c(C(=O)NC(=N)N)cc2C(F)(F)F)CC1`: 28 nM; for `Cn1cncc1C(=O)N1CCC(c2ccc(C(=O)NC(=N)N)cc2C(F)(F)F)CC1`: 62 nM.

In the case of `COc1cc(C2CCN(C(C)=O)CC2)c(C(F)(F)F)cc1C(=O)NC(=N)N`, the EC50 amounted to 432 nM. As for `CS(=O)(=O)c1ccccc1C(=O)N1CCC(c2ccc(C(=O)NC(=N)N)cc2C(F)(F)F)CC1`, the EC50 stood at 269 nM. In the case of `N=C(N)NC(=O)c1ccc(C2CCN(C(=O)c3ccccc3Cl)CC2)c(C(F)(F)F)c1`, the EC50 stood at 495 nM. The same measure for `N=C(N)NC(=O)c1ccc(C2CCN(C(=O)c3ccc(Cl)cc3)CC2)c(C(F)(F)F)c1`: 1130 nM; for `N=C(N)NC(=O)c1ccc(C2CCN(C(=O)c3ccc(S(N)(=O)=O)cc3)CC2)c(C(F)(F)F)c1`: 23 nM. The same measure for `N#Cc1cccc(C(=O)N2CCC(c3ccc(C(=O)NC(=N)N)cc3C(F)(F)F)CC2)c1`: 111 nM; for `N=C(N)NC(=O)c1ccc(C2CCN(C(=O)c3cccnc3)CC2)c(C(F)(F)F)c1`: 32 nM. Take `CNS(=O)(=O)c1ccc(C(=O)N2CCC(c3ccc(C(=O)NC(=N)N)cc3C(F)(F)F)CC2)cc1`: the EC50 worked out at 88 nM. The same measure for `N=C(N)NC(=O)c1ccc(C2CCN(C(=O)c3ccc(C(N)=O)cc3)CC2)c(C(F)(F)F)c1`: 36 nM. To `N#Cc1ccccc1C(=O)N1CCC(c2ccc(C(=O)NC(=N)N)cc2C(F)(F)F)CC1` belongs 200 nM. To `CC(C)C(=O)N1CCC(c2ccc(C(=O)NC(=N)N)cc2C(F)(F)F)CC1` belongs 79 nM; to `CN(C)C(=O)c1ccc(C(=O)N2CCC(c3ccc(C(=O)NC(=N)N)cc3C(F)(F)F)CC2)cc1`, 77 nM; to `N=C(N)NC(=O)c1ccc(C2CCN(C(=O)c3ccc(-c4cnco4)cc3)CC2)c(C(F)(F)F)c1`, 368 nM. `Cc1cc(C(=O)N2CCC(c3ccc(C(=O)NC(=N)N)cc3C(F)(F)F)CC2)nn1C`: the EC50 amounted to 115 nM.

Turning to `N=C(N)NC(=O)c1ccc(C2CCN(C(=O)c3ccccn3)CC2)c(C(F)(F)F)c1`, the EC50 was 79 nM. The same measure for `CS(=O)(=O)c1cccc(C(=O)N2CCC(c3ccc(C(=O)NC(=N)N)cc3C(F)(F)F)CC2)c1`: 50 nM.

Regarding `N=C(N)NC(=O)c1ccc(C2CCN(C(=O)c3ccc(O)cc3)CC2)c(C(F)(F)F)c1`, the EC50 is 138 nM.

Regarding `CCC(=O)N1CCC(c2ccc(C(=O)NC(=N)N)cc2S(C)(=O)=O)CC1`, the EC50 turned out to be 266 nM. For `CCC(=O)N1CCC(c2ccc(C(=O)NC(=N)N)cc2C(F)(F)F)CC1`, the EC50 is 31 nM.

With `CS(=O)(=O)c1ccc(C(=O)N2CCC(c3ccc(C(=O)NC(=N)N)cc3C(F)(F)F)CC2)cc1`, the EC50 amounted to 93 nM. To `N=C(N)NC(=O)c1ccc(C2CCN(C(=O)c3ccc(C(F)(F)F)cc3)CC2)c(C(F)(F)F)c1` belongs 539 nM; to `COCC(=O)N1CCC(c2ccc(C(=O)NC(=N)N)cc2C(F)(F)F)CC1`, 48 nM. The same measure for `CC(C)CC(=O)N1CCC(c2ccc(C(=O)NC(=N)N)cc2C(F)(F)F)CC1`: 221 nM; for `N=C(N)NC(=O)c1ccc(C2CCN(C(=O)c3ccccc3)CC2)c(C(F)(F)F)c1`: 109 nM; for `CC(C)(C)C(=O)N1CCC(c2ccc(C(=O)NC(=N)N)cc2C(F)(F)F)CC1`: 127 nM.

On to `N#Cc1ccc(C(=O)N2CCC(c3ccc(C(=O)NC(=N)N)cc3C(F)(F)F)CC2)cc1`, for which the EC50 was determined as 152 nM. Consider `N=C(N)NC(=O)c1ccc(C2CCN(C(=O)c3ccc[nH]3)CC2)c(C(F)(F)F)c1`, for which the EC50 was found to be 241 nM. For the molecule `N=C(N)NC(=O)c1ccc(N2CCN(C(=O)c3ccc[nH]3)CC2)c(C(F)(F)F)c1` [SABIPORIDE], the EC50 is 172 nM. The same measure for `CNC(=O)c1ccc(C(=O)N2CCC(c3ccc(C(=O)NC(=N)N)cc3C(F)(F)F)CC2)cc1`: 214 nM; for `N=C(N)NC(=O)c1ccc(C2CCN(C(=O)c3cccc(-c4cnco4)c3)CC2)c(C(F)(F)F)c1`: 353 nM; for `N=C(N)NC(=O)c1ccc(C2CCN(C(=O)c3ccncc3)CC2)c(C(F)(F)F)c1`: 70 nM. To `N=C(N)NC(=O)c1ccc(C2CCN(C(=O)c3ccc(=O)[nH]c3)CC2)c(C(F)(F)F)c1` belongs 25 nM. For the molecule `CCCC(=O)N1CCC(c2ccc(C(=O)NC(=N)N)cc2C(F)(F)F)CC1`, the EC50 is 201 nM. To `CN(C)S(=O)(=O)c1ccc(C(=O)N2CCC(c3ccc(C(=O)NC(=N)N)cc3C(F)(F)F)CC2)cc1` belongs 241 nM; to `N=C(N)NC(=O)c1ccc(C2CCN(C(=O)c3ccc(-n4ccnc4)cc3)CC2)c(C(F)(F)F)c1`, 169 nM.

Take `Cn1ccnc1C(=O)N1CCC(c2ccc(C(=O)NC(=N)N)cc2C(F)(F)F)CC1`: the EC50 came out at 111 nM.

For the molecule `CCC(=O)N1CCC(c2cc(C)c(C(=O)NC(=N)N)cc2S(C)(=O)=O)CC1`, the EC50 is 88 nM.

Regarding `N=C(N)NC(=O)c1ccc(C2CCN(C(=O)c3cccc(Cl)c3)CC2)c(C(F)(F)F)c1`, the EC50 is 989 nM. To `CC(=O)N1CCC(c2ccc(C(=O)NC(=N)N)cc2S(C)(=O)=O)CC1` belongs 189 nM.
